From patent US6214872A, “Aryloxyarylsulfonylamino hydroxamic acid derivatives” (Pfizer Inc., priority 1999, dated 2001)
pIC50: −log10 of the molar value. Where “and” joins values, the source holds several entries; their conditions need not be identical. Identical values can stand only once.

Key:
[1] = target: T1, Human Collagenase (MMP-1) (Homo sapiens, UniProt P03956); assay: Inhibition of Human Collagenase (MMP-1); type: biochemical; settings: Table 1; human recombinant collagenase, fluorogenic substrate, room temperature
T1 sequence (P03956 100-469): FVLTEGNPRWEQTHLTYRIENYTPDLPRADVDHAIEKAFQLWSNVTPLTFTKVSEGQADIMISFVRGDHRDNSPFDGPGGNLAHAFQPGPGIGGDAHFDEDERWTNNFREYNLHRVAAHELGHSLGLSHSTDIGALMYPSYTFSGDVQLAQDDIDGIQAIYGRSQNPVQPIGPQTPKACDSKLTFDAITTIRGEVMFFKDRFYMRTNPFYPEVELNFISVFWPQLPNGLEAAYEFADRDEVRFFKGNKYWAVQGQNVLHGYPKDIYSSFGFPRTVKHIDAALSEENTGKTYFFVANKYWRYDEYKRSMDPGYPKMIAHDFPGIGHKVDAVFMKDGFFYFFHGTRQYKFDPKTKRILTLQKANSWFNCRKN
Method: Human recombinant collagenase is activated with trypsin using the following ratio: 10 mg trypsin per 100 mg of collagenase. The trypsin and collagenase are incubated at room temperature for 10 minutes then a five fold excess (50 mg/10 mg trypsin) of soybean trypsin inhibitor is added. 10 mM stock solutions of inhibitors are made up in dimethyl sulfoxide and then diluted using the following Scheme: 10 mM→120 μM→12 μM→1.2 μM→0.12 μM Twenty-five microliters of each concentration is then added in triplicate to appropriate wells of a 96 well microfluor plate. The final concentration of inhibitor will be a 1:4 dilution after addition of enzyme and substrate. Positive controls (enzyme, no inhibitor) are set up in wells D1-D6 and blanks (no enzyme, no inhibitors) are set in wells D7-D12. Collagenase is diluted to 400 ng/ml and […] is then added to appropriate wells of the microfluor plate. Final concentration of collagenase in the assay is 100 ng/ml. Substrate ([…]) is made as a 5 mM stock in dimethyl sulfoxide and then diluted to […] in assay buffer. The assay is initiated by the addition of […] substrate per well of the microfluor plate to give a final concentration of 10 mM. Fluorescence readings (360 nm excitation, 460 nm emission) were taken at time 0 and then at 20 minute intervals. The assay is conducted at room temperature with a typical assay time of 3 hours. Fluorescence vs time is then plotted for both the blank and collagenase containing samples (data from triplicate determinations is averaged). […] The zero time is used as a blank for each compound at each concentration and these values are subtracted from the 120 minute data. Data is plotted as inhibitor concentration vs % control (inhibitor fluorescence divided by fluorescence of collagenase alone×100). IC50 's are determined from the concentration of inhibitor that gives a signal that is 50% of the control. If IC50 's are reported to be <0.03 mM then the inhibitors are assayed at concentrations of 0.3 mM, 0.03 mM, […] and 0.003 mM.

[2] = target: Human recombinant MMP-13 (collagenase 3) (Homo sapiens, UniProt P45452); assay: Inhibition of MMP-13; type: biochemical; settings: human recombinant MMP-13, fluorogenic substrate
Method: Human recombinant MMP-13 is activated with 2 mM APMA (p-aminophenyl mercuric acetate) for 1.5 hours, at 37° C. and is diluted to […] in assay buffer (50 mM Tris, pH 7.5, 200 mM sodium chloride, 5 mM calcium chloride, […], 0.02% brij). Twenty-five microliters of diluted enzyme is added per well of a 96 well microfluor plate. The enzyme is then diluted in a 1:4 ratio in the assay by the addition of inhibitor and substrate to give a final concentration in the assay of […]. 10 mM stock solutions of inhibitors are made up in dimethyl sulfoxide and then diluted in assay buffer as per the inhibitor dilution scheme for inhibition of human collagenase (MMP-1): Twenty-five microliters of each concentration is added in triplicate to the microfluor plate. The final concentrations in the assay are 30 mM, 3 mM, 0.3 mM, and 0.03 mM. Substrate ([…]) is prepared as for inhibition of human collagenase (MMP-1) and […] is added to each well to give a final assay concentration of 10 mM. Fluorescence readings (360 nm excitation; 450 emission) are taken at time 0 and every 5 minutes for 1 hour. Positive controls consist of enzyme and substrate with no inhibitor and blanks consist of substrate only. IC50 's are determined as per inhibition of human collagenase (MMP-1). If IC50 's are reported to be less than […], inhibitors are then assayed at final concentrations of 0.3 mM, 0.03 mM, 0.003 mM and 0.0003 mM.

SMILES | pIC50 [1] | pIC50 [2]
CCOC(=O)CCN(C1(C(=O)NO)CCCC1)S(=O)(=O)c1ccc(Oc2ccc(F)cc2)cc1 [Example 1, 3-[[4-(4-FLUOROPHENOXY)BENZENESULFONYL]-(1-HYDROXY-CARBAMOYL CYCLOPENTYL)AMINO]-PROPIONIC ACID ETHYL ESTER] | 7.00 | 9.05
COc1ccc(S(=O)(=O)N(CCC(=O)O)C(C(=O)NO)C2CCCCC2)cc1 (centres unmarked) [cyclohexyl, hydrogen, hydrogen, methoxy] | 7.74 and 7.66 | 8.40 and 8.70
COc1ccc(S(=O)(=O)N(CCC(=O)O)C2(C(=O)NO)CCCC2)cc1 [cyclopentyl, --, hydrogen, methoxy] | 6.10 and 6.15 | 7.68 and 7.60
COc1ccc(S(=O)(=O)N(CCC(=O)O)C(C)(C)C(=O)NO)cc1 [methyl, methyl, hydrogen, methoxy] | 4.92 | 6.23 and 6.14
